Assay results reported in patent US20120035244A1, “PARP1 TARGETED THERAPY” (THE REGENTS OF THE UNIVERSITY OF MICHIGAN, priority 2010, published 2012).
Entries after “also recorded” stand apart in the source; their conditions may differ.

What was measured:
[1] = tested on: PC3-LACZ xenografts; test: PC3-LACZ mouse xenograft model; type: in vivo, mice; conditions: PC3-LACZ (ETS negative)
Source text: (§1) Olaparib was obtained from Axon Medchem (Groningen, The Netherlands).

[2] = tested on: BRCA2 shRNA PC3 cells; test: Neutral COMET assay, BRCA2 shRNA PC3 cells; type: cell-based, human; conditions: P=0.14 and P=0.003, two-way ANOVA
Procedure: VCaP, PC3, PrEC or RWPE cells were seeded at 250,000 cells/mL in a 6-well plate 24 hours prior to treatment with siRNA, drug or vehicle control. After 48 hours, cells were trypsinized, harvest by centrifugation and re-suspend in PBS. Cell counts were then normalized to 1×10^5 cells/mL. Suspended cells (25 μL) were then mixed with 250 μL 1.0% ultrapure low melting point agarose (Invitrogen) made in 1× Tris-Borate buffer. The agarose-cell mixture was then dropped onto slides allowed to solidify at 4° C. in the dark for 20 minutes before immersion in COMET assay lysis solution (Trevigen, Gaithersburg, Md.) at 4° in the dark for 45 minutes. Excess buffer was then removed and slides were submerged in freshly prepared neutral solution (Tris Base 60.57 g, Sodium Acetate 204.12 g, dissolve in 450 ml of dH2O, adjust to pH=9.0 with glacial acetic acid) at room temperature in the dark for 40 minutes. Slides were then washed twice by immersing in 1×TBE buffer prior to neutral electrophoresis at 20 volts for 30 minutes. Slides were then fixed in 70% ethanol for 5 minutes. […] COMET tail moments were then assessed using COMETscore.v1.5 (AutoCOMET.com, Sumerduck, Va.) image processing software as described by the manufacturer with greater than 100 cells analyzed in triplicate experiments.

[3] = tested on: T-ALL cell lines; test: T-ALL cell lines: neutral COMET assays and soft agar colony formation; type: cell-based; conditions: with or without 10 μM Olaparib for 48 hours (COMET); soft agar colony formation
Procedure: The effect of PARP1 inhibitors on T-ALL cell lines was assayed using Western blot analysis of several T-ALL cell lines comparing total ERG expression levels. In addition, neutral COMET assays were performed on a panel of T-ALL cell lines. RWPE was used as an ETS negative control and VCaP cells were used for comparison to an ETS positive model. Cells were treated with or without 10 μM Olaparib for 48 hours as indicated. Soft agar colony formation was performed on cells treated with or without Olaparib as indicated. All experiments were run in triplicate. Error bars are standard error of the mean.

[4] = tested on: MDA-PCa-2b-T (ETV1 positive); test: Human prostate cancer tissue xenograft (primagraft) MDA-PCa-2b-T; type: in vivo, mice; conditions: 40 mg/kg Olaparib, P<0.01 (day 8, 12 and 16)
Procedure: Human prostate cancer specimens MDA-PCa 2b-T (ETV1 positive), MDA-PCa-133 (ERG positive) and MDA PCa 118b (ETS-negative) were obtained (Li, Z. G., et al. The Journal of clinical investigation 118, 2697-2710 (2008)). Each xenografted tumor tissue was aseptically harvested from the host mice. New recipient mice were anesthetized by injecting […] intraperitoneally for chemical restraint before tumor implantation. About 0.5 cm^3 size of the excised tumor tissue was directly implanted into subcutaneous pockets of 6- to 8-week-old male CB17 SCID mice (Charles River Laboratories) in a laminar flow sterile hood. Sub-cutaneous pocket was carefully closed by applying 1 or 2 wound clips. All mice were monitored for 24 hours after implantation procedure for any apparent physiologic disturbances or missing wound clips. Olaparib (40 mg/Kg body weight) treatment was started after 72 hours. […] Body weight was also monitored weekly during the course of the study.

[5] = tested on: 22RV1 xenografts; test: 22RV1 mouse xenograft model; type: in vivo, mice; conditions: 22RV1 (ETS negative), Olaparib
Source text: as §1

[6] = tested on: PC3-ERG xenografts; test: PC3-ERG mouse xenograft model; conditions: P=0.007 for PARP inhibition
Procedure: Four weeks old male Balb C nu/nu mice were purchased from Charles River, Inc. (Charles River Laboratory, Wilmington, Mass.). VCaP (2×10^6 cells), PC3-luciferase-control (1×10^5 cells) or PC3-luciferase-ERG (1×10^5 cells) stable cells were resuspended in 100 μl of saline with 50% Matrigel (BD Biosciences, Becton Drive, NJ) and were implanted subcutaneously into the left flank region of the mice. Mice were anesthetized using a cocktail of xylazine (80-120 mg/kg, IP) and ketamine (10 mg/kg, IP) for chemical restraint before tumor implantation. All tumors were staged for three week before starting the drug treatment. After week 3 for VCaP cells or after 48 hours for PC3 cells, mice (10 per treatment group) were treated with NU7026 (25 mg/kg, IP), Olaparib (40 mg/kg, IP) daily five times a week. Olaparib was obtained from Axon Medchem (Groningen, The Netherlands). Growth in tumor volume was recorded weekly by using digital calipers and tumor volumes were calculated using the formula (π/6) (L×W2), where L=length of tumor and W=width. Loss of body weight during the course of the study was also monitored weekly.

[7] = tested on: DU145 cells; test: Colony formation after radiation, isogenic DU145 model overexpressing T2:ERG; type: cell-based; conditions: DU145, pre-treated with 10 μM Olaparib
Procedure: The effect of ETS overexpression on radioresistance was assayed. Isogenic PC3 or DU145 models overexpressing either T2:ERG or ERG with a deleted ETS domain were pre-treated with or without 10 μM Olaparib and then treated with different doses of radiation as indicated. Colony formation was assessed. Experiments were also performed in which cells were pre-treated with either PARP1 or control siRNA prior to radiation. Western blot analysis was used to assess PARP knockdown efficiency in the inset. Total Poly(ADP-ribose) (or PAR) levels were assessed by Western blot analysis from total cell lysates. All experiments were run in triplicate. Error bars are standard error of the mean.

O=C(c1cc(Cc2n[nH]c(=O)c3ccccc23)ccc1F)N1CCN(C(=O)C2CC2)CC1 [Olaparib, 4-[3-(4-Cyclopropanecarbonylpiperazine-1-carbonyl)-4-fluorobenzyl]-2H-phthalazin-1-one]
xenograft growth [1]: did not significantly inhibit xenograft growth | COMET tail moments versus Olaparib treated ETS overexpressing cells [2]: slightly larger tail moments | sensitivity of T-ALL cell lines [3]: sensitive to PARP1 inhibition; also recorded: sensitive to PARP inhibition | primagraft growth [4]: inhibited the growth | xenograft growth [5]: not responsive; also recorded: did not inhibit the growth | xenograft growth [6]: significantly sensitize the PC3 cells to PARP inhibition | ERG induced radiation resistance (colony formation) [7]: blocks ERG induced radiation resistance; also recorded: reversed by PARP inhibition
